How the values were obtained:
human plasma proteins = assay: Protein binding to human plasma proteins using equilibrium dialysis; assay type: in vitro ADME; details: pH 7.4, equilibrium dialysis 6 h, 37° C.
Protocol: III. Determination of Protein Binding to Human Plasma Proteins Using Equilibrium Dialysis
96 Well Plate (High Throughput Dialysis): Stock solutions of compounds were spiked into human plasma at a target concentration of 2000 ng/mL. The mixture was inverted gently several times to insure homogeneity and triplicate 50 μL aliquots were collected to verify initial concentrations. Following assembly of dialysis plate (HTDialysis membrane strips, molecular weight cut off limit of 12,000-14,000 daltons), spiked plasma (150 μL) was placed in the donor compartment of the well and Phosphate Buffered Saline pH 7.4 (150 μL) in the receiver compartment. Eight wells were set up per compound and plasma type. Plate was placed in a 37° C. incubator on a plate shaker. Following the 6 h incubation period, the plate was removed. Single 50 μL aliquots from each donor and receiver compartment (per well) were analyzed. Sample analysis was by LC/MS/MS (results reported as Drug Peak Area/Internal Standard Peak Area ratios). Protein binding assay can also be performed using dialysis cells instead of HT Dialysis 96 well plates. In Table 1, % Protein Binding, +=>98%; ++=95-98%: +++=<95%.

MDA-MB-468 = assay: Cell-Titer-Glo inhibition of cell proliferation, MDA-MB-468; assay type: cell-based; details: Homo sapiens, CellTiter-Glo, 72 h
Protocol: (§1) V. Cell-Titer-Glo—Inhibition of Cell Proliferation by PLK1 Inhibitors
(§2) Exponentially growing cell lines of different tumor origins, cultured in appropriate media containing 10% fetal bovine serum at 37° C. in a 5% CO2 incubator were plated at low density (less than 2000 cells/well) in 96-well plates. Twenty four hours post-plating, cells were treated with different concentrations of test compounds ranging from 10 uM to 0.04 nM. Several wells were left untreated as a control. Seventy two hours post-treatment, cell numbers were determined using 50-100 ul per well of CellTiter-Glo (Promega #G7573). Plates were incubated at room temperature for 15 minutes and the chemiluminescent signal was read on the Victor V or Envison 2100 reader.
(§3) The Cell-Titer Glo data are shown in Table 2 below and represent a compilation of several different experiments, each performed using the general parameters outlined above, although minor variations may have been employed in some instances.

BXPC3 = assay: Cell-Titer-Glo inhibition of cell proliferation, BXPC3; assay type: cell-based; details: Homo sapiens, BXPC-3, CellTiter-Glo, 72 h
Protocol: as §1, §2, §3

MiaPaca = assay: Cell-Titer-Glo inhibition of cell proliferation, MiaPaca; assay type: cell-based; details: Homo sapiens, MIA PaCa-2, CellTiter-Glo, 72 h
Protocol: as §1, §2, §3

PANC-1 = assay: Cell-Titer-Glo inhibition of cell proliferation, PANC-1; assay type: cell-based; details: Homo sapiens, CellTiter-Glo, 72 h
Protocol: as §1, §2, §3

SKOV-3 = assay: Cell-Titer-Glo inhibition of cell proliferation, SKOV-3; assay type: cell-based; details: Homo sapiens, SK-OV-3, CellTiter-Glo, 72 h
Protocol: as §1, §2, §3

ASPC3 = assay: Cell-Titer-Glo inhibition of cell proliferation, ASPC3; assay type: cell-based; details: CellTiter-Glo, 72 h
Protocol: as §1, §2, §3

- fraction unbound at 6 h, 2000 ng/mL (human plasma proteins): > 0.05
- IC50 (MDA-MB-468): < 500 nM
- IC50 (BXPC3): < 500 nM
- IC50 (MiaPaca): < 500 nM
- IC50 (PANC-1): < 500 nM
- IC50 (SKOV-3): < 500 nM
- IC50 (ASPC3): < 500 nM
SMILES: C[C@@H](Oc1cc(-n2cnc3ccc(CN4CCN(C)CC4)cc32)sc1C(N)=O)c1ccccc1C(F)(F)F [Example 3, 5-{6-[(4-Methylpipiperazin-1-yl)methyl]-1H-benzimidazol-1-yl}-3-{(1R)-1-[2-(trifluoromethyl)phenyl]ethoxy}thiophene-2-carboxamide]

From US7595330B2, “Benzimidazole thiophene compounds” (SmithKline Beecham Corporation, priority 2005, dated 2009)
